Earlier results on 4 molecules are cited in patent publication US6586417B1, “Ester and ether derivatives of 4-hydroxy 4-androstene-3,17-dione and a method for the regulation of athletic function in humans” (NutriSport Pharmacal, Inc., priority 2002, dated 2003).

One data set deals with rat follicles. Conditions: rat follicles in vitro.
The subject of a further data set is rats. Conditions: for weight of the genital organs (testis, ventral prostrate, seminal vesicle) / luteinizing hormone (LH) levels: rats, subcutaneous treatment; for luteinizing hormone (LH) levels: 4-acetoxy-4-androstenedione given against effects of 19-hydroxytestosterone.
Data set [1] relates to transformation of testosterone to dihydrotestosterone in the ventral prostrate. Conditions: ventral prostrate of the adult male rat.
The target of a further data set is T1, aromatase enzyme (Homo sapiens, UniProt P11511).
T1 construct: host or cells: endogenous enzyme in treated males (in vivo)
T1 sequence (P11511 1-503): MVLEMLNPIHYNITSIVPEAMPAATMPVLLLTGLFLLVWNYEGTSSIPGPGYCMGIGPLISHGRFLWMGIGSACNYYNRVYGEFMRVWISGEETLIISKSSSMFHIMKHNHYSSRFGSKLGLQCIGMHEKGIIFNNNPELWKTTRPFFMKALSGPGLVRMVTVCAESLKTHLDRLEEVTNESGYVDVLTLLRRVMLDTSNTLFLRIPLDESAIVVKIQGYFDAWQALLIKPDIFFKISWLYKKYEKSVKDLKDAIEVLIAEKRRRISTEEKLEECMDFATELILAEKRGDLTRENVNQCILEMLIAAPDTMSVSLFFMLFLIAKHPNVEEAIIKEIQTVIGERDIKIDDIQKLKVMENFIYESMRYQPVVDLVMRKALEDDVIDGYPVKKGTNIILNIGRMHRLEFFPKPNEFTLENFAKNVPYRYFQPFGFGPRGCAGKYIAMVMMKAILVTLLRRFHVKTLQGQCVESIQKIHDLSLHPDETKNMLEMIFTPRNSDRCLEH
Conditions: at 24 and 48 weeks.

Consider `CC(=O)OC1=C2CC[C@@H]3[C@H](CC[C@]4(C)C(=O)CC[C@@H]34)[C@@]2(C)CCC1=O` [4-acetoxy-4-androstenedione], for which, in the data set with rat follicles (first eight hours, plus LH), the “stimulation of testosterone, in combination with luteinizing hormone (LH)” value is reported as “greatly stimulate testosterone”. For the same molecule, the “stimulation of testosterone, compound alone” value in the data set with rat follicles (first eight hours, without LH) was “directly stimulate testosterone alone”. In the data set with rat follicles (next sixteen hours, compound alone), the “stimulation of testosterone relative to luteinizing hormone (LH)” value was “three times as much as luteinizing hormone (LH)”. Further, the meiotic activity entry in the data set with rats (rats treated with 19-hydroxytestosterone) is recorded as “restored meiotic activity”. Further, in the data set with rats, the “weight of the genital organs (testis, ventral prostrate, seminal vesicle)” value is on record as “increased the weight of the genital organs” and the “luteinizing hormone (LH) levels” value was “increased luteinizing hormone (LH) levels”. Also, the “inhibition of the transformation of testosterone to dihydrotestosterone” value in data set [1] is given as “able to inhibit”.

Consider `C[C@]12CCC(=O)C(O)=C1CC[C@@H]1[C@@H]2CC[C@]2(C)C(=O)CC[C@@H]12` [4-hydroxy 4-androstenedione, 4-hydroxy 4-androstene-3, 17-dione], for which the “escape from estrogen suppression” value in the data set on estrogen (500 mg p.o. daily versus single i.m. injection of 125 mg) was “more rapid”. Moreover, the oral absorption entry in the data set on estrogen (p.o.) is listed as “adequate oral absorption”. The “inhibition of the transformation of testosterone to dihydrotestosterone” value in data set [1] is reported as “able to inhibit”.

For `C[C@]12CC[C@H]3[C@@H](CCC4=CC(=O)CC[C@@]43CO)[C@@H]1CC[C@@H]2O` [19-hydroxytestosterone, reference compound], in the data set with rats, the “weight of the genital organs (testis, ventral prostrate, seminal vesicle)” value was “decrease in weight of the testis, ventral prostrate, seminal vesicle” and the “luteinizing hormone (LH) levels” value is recorded as “decrease”.

Take `CC1=CC(=O)C=C2CC[C@@H]3[C@H](CC[C@]4(C)C(=O)CC[C@@H]34)[C@@]12C` [atamestane]: the “restoration of androgens over estrogens” value at aromatase enzyme is “restoration of androgens over estrogens”.
